Like-named read-outs stand apart in the source and are kept apart here.
What was measured:
Assay in all cases: Thermal stability shift assay
Assay type in all cases: binding
PKD2 = target: T1, PKD2 (Homo sapiens, UniProt Q9BZL6); settings: read-out: Tm shift PKD2
T1 sequence (Q9BZL6 1-878): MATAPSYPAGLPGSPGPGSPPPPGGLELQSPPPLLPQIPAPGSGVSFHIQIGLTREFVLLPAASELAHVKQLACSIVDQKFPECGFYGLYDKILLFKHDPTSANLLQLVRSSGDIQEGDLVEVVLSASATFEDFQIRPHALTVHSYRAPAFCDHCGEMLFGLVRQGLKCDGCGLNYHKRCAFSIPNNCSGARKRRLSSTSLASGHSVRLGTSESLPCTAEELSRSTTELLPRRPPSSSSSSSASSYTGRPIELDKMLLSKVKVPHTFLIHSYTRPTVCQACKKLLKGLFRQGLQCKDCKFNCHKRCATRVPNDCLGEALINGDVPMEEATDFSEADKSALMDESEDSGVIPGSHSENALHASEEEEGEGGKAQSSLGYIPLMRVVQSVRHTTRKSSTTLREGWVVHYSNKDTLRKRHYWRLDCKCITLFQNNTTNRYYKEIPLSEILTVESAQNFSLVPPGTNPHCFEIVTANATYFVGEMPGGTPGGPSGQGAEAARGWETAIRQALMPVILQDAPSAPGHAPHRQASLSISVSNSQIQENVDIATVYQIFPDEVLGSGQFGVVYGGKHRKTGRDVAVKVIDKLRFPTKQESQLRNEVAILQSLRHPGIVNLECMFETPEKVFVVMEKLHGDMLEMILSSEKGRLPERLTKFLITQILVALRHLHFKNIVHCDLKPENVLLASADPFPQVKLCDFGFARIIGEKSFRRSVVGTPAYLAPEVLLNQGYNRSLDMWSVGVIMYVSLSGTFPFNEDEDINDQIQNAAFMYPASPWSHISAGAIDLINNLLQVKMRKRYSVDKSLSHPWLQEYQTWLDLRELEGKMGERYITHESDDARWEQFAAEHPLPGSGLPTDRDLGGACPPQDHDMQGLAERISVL
Experimental: (§1) Thermal denaturation experiments were carried out in an Mx3005p real-time PCR machine (Agilent) using a protein concentration of 2 μM and an inhibitor concentration of 10 μM. Samples were buffered in 10 mM HEPES (pH 7.5), 500 mM NaCl and a 1:1000 dilution of SyproOrange (Invitrogen). The assay and data evaluation were carried out as described ([Bullock et al., 2005])

PCTAIRE1 = target: T2, PCTAIRE1 (Homo sapiens, UniProt Q00536); settings: read-out: Tm shift PCTAIRE1
T2 construct: purchased in-house (SGC Oxford thermal shift panel)
T2 sequence (Q00536 whole entry): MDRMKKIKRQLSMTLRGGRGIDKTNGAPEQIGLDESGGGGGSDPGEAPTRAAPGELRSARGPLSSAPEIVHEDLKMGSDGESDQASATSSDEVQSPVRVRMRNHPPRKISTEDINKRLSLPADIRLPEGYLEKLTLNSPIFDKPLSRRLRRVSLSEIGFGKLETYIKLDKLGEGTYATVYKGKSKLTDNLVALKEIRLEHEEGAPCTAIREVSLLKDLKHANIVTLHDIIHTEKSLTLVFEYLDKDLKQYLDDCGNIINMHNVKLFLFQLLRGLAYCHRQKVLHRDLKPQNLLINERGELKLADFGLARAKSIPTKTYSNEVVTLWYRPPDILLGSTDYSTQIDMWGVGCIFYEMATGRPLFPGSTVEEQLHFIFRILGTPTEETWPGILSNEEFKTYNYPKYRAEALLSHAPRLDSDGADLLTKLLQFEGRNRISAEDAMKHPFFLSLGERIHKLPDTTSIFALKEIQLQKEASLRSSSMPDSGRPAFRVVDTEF
Experimental: as §1

AKT3 = AKT3 (Homo sapiens, UniProt Q9Y243); settings: read-out: Tm shift AKT3
AKT3, sequence (Q9Y243 whole entry): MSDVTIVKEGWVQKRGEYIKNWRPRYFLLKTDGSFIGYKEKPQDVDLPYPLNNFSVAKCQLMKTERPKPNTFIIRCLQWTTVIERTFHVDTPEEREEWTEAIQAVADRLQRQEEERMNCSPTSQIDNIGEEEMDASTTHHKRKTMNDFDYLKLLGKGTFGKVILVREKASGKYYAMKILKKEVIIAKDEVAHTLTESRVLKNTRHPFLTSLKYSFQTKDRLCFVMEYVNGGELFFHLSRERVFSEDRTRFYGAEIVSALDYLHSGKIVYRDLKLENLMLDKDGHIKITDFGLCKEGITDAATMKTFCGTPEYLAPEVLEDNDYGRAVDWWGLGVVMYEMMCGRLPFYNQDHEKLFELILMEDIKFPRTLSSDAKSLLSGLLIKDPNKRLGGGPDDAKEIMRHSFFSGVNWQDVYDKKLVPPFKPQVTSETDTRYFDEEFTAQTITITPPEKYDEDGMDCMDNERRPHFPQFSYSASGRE
Experimental: as §1

PIM2 = PIM2 (Homo sapiens, UniProt Q9P1W9); settings: read-out: Tm shift PIM2
PIM2, sequence (Q9P1W9 whole entry): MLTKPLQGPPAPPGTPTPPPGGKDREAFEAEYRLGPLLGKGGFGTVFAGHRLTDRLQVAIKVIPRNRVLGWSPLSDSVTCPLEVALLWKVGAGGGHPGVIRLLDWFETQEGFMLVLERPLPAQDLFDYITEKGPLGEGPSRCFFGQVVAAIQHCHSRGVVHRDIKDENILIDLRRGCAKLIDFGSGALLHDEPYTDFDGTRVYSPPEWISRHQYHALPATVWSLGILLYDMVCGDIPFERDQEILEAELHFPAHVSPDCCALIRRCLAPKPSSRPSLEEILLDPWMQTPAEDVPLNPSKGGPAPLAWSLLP
Experimental: as §1

RSK3~C = target: T3, RSK3~C (Homo sapiens, UniProt Q15349); settings: read-out: Tm shift RSK3~C
T3 construct: RSK3~C 4.5 8.9 0.7 0.4 0.5 0.1 0.4
T3 sequence (Q15349 415-672 limits assumed): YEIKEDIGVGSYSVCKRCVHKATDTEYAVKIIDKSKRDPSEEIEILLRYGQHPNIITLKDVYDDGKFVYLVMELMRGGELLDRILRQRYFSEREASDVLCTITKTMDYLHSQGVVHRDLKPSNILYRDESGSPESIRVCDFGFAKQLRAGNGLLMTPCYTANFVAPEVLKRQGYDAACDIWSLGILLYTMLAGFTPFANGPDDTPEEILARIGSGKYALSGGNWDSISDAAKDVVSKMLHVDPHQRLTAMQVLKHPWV
Experimental: as §1

GAK = target: T4, GAK (Homo sapiens, UniProt O14976); settings: read-out: Tm shift GAK
T4 construct: purchased in-house (SGC Oxford thermal shift panel)
T4 sequence (O14976 1-1311): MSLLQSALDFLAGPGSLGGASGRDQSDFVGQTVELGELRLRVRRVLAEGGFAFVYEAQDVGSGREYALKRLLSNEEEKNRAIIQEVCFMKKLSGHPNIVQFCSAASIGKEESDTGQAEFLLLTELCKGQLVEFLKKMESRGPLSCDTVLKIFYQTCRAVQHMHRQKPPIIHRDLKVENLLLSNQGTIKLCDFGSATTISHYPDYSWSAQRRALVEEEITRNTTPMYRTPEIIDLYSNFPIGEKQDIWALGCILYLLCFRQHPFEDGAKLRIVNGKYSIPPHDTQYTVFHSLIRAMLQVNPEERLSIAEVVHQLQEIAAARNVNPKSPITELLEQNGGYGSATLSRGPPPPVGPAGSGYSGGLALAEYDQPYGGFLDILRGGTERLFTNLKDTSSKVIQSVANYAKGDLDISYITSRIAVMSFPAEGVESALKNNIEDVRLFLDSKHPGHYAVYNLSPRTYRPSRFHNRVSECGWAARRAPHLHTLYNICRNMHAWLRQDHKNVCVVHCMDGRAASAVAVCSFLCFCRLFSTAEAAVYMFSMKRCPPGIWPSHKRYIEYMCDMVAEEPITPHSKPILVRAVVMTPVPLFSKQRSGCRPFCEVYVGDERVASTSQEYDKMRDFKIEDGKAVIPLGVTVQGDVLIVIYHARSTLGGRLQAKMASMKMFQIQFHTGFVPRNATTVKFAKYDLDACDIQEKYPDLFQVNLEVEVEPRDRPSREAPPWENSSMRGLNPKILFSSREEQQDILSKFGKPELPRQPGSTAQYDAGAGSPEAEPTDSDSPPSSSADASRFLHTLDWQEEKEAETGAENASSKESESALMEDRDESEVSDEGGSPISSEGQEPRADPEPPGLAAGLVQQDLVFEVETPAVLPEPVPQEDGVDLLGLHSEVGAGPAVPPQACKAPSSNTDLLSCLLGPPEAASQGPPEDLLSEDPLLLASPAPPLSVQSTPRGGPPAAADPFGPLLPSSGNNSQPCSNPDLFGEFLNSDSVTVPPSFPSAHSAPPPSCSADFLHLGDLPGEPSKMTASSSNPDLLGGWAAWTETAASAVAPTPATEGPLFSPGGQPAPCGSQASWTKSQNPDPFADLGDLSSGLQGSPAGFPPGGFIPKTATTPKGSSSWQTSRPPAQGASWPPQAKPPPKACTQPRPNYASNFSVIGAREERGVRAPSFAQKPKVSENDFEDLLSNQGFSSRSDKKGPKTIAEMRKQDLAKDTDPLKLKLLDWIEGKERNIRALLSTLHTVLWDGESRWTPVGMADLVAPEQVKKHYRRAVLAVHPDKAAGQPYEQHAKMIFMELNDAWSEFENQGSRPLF
Experimental: as §1

SLK = SLK (Homo sapiens, UniProt Q9H2G2); settings: read-out: Tm shift SLK
SLK, sequence (Q9H2G2 whole entry): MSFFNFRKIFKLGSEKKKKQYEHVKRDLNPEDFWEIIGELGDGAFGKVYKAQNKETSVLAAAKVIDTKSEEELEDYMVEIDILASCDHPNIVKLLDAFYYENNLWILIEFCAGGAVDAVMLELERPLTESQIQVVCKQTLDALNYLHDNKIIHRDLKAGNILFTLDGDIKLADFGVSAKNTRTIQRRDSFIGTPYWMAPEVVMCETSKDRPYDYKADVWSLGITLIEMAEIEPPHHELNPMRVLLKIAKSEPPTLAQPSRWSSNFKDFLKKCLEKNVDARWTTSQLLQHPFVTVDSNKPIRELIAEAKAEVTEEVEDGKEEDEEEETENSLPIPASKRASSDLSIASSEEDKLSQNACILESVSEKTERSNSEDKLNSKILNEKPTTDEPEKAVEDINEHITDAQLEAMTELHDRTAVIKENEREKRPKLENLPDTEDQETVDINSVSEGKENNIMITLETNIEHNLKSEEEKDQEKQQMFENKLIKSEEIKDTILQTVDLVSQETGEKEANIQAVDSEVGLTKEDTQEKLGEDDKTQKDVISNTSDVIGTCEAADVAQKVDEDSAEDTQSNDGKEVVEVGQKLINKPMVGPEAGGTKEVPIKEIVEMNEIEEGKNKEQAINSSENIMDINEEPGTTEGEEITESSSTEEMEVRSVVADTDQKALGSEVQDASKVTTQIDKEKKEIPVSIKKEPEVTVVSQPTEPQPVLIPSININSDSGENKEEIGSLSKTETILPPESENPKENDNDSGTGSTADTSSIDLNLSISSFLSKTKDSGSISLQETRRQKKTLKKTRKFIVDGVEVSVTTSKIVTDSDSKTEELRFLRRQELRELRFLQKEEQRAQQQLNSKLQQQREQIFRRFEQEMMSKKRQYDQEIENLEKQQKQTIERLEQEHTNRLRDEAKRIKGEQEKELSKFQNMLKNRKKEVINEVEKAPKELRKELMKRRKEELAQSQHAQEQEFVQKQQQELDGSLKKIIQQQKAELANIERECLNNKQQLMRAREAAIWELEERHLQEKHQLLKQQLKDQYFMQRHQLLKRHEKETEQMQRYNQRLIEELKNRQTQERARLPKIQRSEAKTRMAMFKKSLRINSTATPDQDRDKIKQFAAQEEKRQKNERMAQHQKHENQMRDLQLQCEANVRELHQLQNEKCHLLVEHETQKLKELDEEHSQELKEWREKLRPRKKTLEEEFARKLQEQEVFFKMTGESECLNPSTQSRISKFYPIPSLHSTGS
Experimental: as §1

| Structure (SMILES) | ΔTm at 10 µM (PKD2) | ΔTm at 10 µM (PCTAIRE1) | ΔTm at 10 µM (AKT3) | ΔTm at 10 µM (PIM2) | ΔTm at 10 µM (RSK3~C) | ΔTm at 10 µM (GAK) | ΔTm at 10 µM (SLK) | ΔTm at 10 µM (PKD2; inhibitor 10 μM) | ΔTm at 10 µM (PCTAIRE1; inhibitor 10 μM) | ΔTm at 10 µM (AKT3; inhibitor 10 μM) | ΔTm at 10 µM (PIM2; inhibitor 10 μM) | ΔTm at 10 µM (RSK3~C; inhibitor 10 μM) | ΔTm at 10 µM (GAK; inhibitor 10 μM) | ΔTm at 10 µM (SLK; inhibitor 10 μM) |
| --- | --- | --- | --- | --- | --- | --- | --- | --- | --- | --- | --- | --- | --- | --- |
| CCOC(=O)c1c(/C(C#N)=C\N)c2ccc(Cl)c(Cl)c2n1C [KH-CB19, (E)-Ethyl 3-(2-Amino-1-Cyanovinyl)-6,7-Dichloro-1-Methyl-1H-Indole-2-Carboxylate] | 0.1 °C | 0.4 °C | -0.2 °C | 2.1 °C | 0.7 °C | 0.4 °C | 0 °C | – | – | – | – | – | – | – |
| CCOC(=O)c1c(C(C#N)=CN)c2ccc(Cl)c(Cl)c2n1C (mixture of isomers) [KH-CB20, (E/Z)-Ethyl 3-(2-Amino-1-Cyanovinyl)-6,7-Dichloro-1-Methyl-1H-Indole-2-Carboxylate] | -0.2 °C | 0.1 °C | -0.3 °C | 2.1 °C | 0.4 °C | 0.8 °C | 0.1 °C | – | – | – | – | – | – | – |
| NC1=NC(=O)/C(=C2\CCNC(=O)c3[nH]c(Br)cc32)N1 [Hymenialdisine, hymenialdisine, reference compound] | – | – | – | – | – | – | – | 0.8 °C | 0.7 °C | 1.3 °C | 3.5 °C | 4.5 °C | 3.8 °C | 2.1 °C |
| CCOC(=O)c1c(C(C#N)=CN(C)C)c2ccc(Cl)c(Cl)c2n1C (mixture of isomers) [compound 2, (E/Z)-Ethyl 6,7-Dichloro-3-[1-Cyano-2-(Dimethylamino)Vinyl]-1-Methyl-1H-Indole-2-Carboxylate] | – | – | – | – | – | – | – | 0 °C | 0.4 °C | -0.2 °C | 0.8 °C | 0.1 °C | 0.4 °C | -0.7 °C |
| Cn1c2c(Cl)c(Cl)ccc2c2c(C#N)c[nH]c(=O)c21 [compound 3, 7,8-Dichloro-9-Methyl-1-Oxo-2,9-Dihydro-1H-Pyrido[3,4-b]Indole-4-Carbonitrile] | – | – | – | – | – | – | – | 0.1 °C | 0.4 °C | 0.1 °C | 3 °C | 0.5 °C | 0.8 °C | -0.6 °C |

Reference: publication PMC3145970, “Specific CLK Inhibitors from a Novel Chemotype for Regulation of Alternative Splicing” (Chemistry & Biology, 2011)
